Patent US4814485A, “4-aminobutanoic acid derivatives, process of preparation and use thereof” (Sanofi, priority 1985, dated 1989)

Target: T1, human plasma renin (Homo sapiens, UniProt P00797)
T1 construct: human plasma renin activity; from tissue; host or cells: human plasma
T1 sequence (P00797 67-406): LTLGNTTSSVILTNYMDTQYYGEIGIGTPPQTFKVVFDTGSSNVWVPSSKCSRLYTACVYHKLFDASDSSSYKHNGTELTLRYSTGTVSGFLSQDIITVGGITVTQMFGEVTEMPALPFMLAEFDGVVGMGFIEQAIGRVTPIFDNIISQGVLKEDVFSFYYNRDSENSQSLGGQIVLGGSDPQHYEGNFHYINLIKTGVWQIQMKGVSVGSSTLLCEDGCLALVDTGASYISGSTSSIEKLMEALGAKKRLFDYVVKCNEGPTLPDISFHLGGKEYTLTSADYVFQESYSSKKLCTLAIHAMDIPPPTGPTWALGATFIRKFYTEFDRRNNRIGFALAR
Assay: inhibitory action on the human plasma renin activity
Assay type: biochemical
Conditions: pH=6, method of European patent application No. 104,964, read-out: IC50 (dose of compound under study which causes 50% inhibition of the human plasma renin activity)
From the text: The peptide so obtained was studied for determining its inhibitory action on the human plasma renin activity using the method described in European patent application No. 104,964.

BOC-Phe-Nle-APHBA-Ala-Sta-OCH3 [SR 44205]
IC50: 1000 nM
